Assays:
[1] = test system: SIV-specific CD8+ T cell responses; assay: IFNγ ELISPOT of epitope-specific CD8+ T cell responses in DNA-immunized / SIV-infected macaques; assay type: in vivo, rhesus macaques; details: for Epitope-specific responses, Group A monkeys, 2 weeks post-SIV infection / Epitope-specific responses, Group A monkeys, Post-immunization, Pre-infection / Epitope-specific responses, Group C monkeys, 2 weeks post-SIV infection: ELISPOT; for Epitope-specific responses, Group A monkeys, 2 weeks post-SIV infection / Epitope-specific responses, Group A monkeys, Post-immunization, Pre-infection: Mamu-A*01 positive macaques immunized before and after infection; for Epitope-specific responses, Group A monkeys, Post-immunization, Pre-infection: after DNA immunization, before SIV infection; for CD8+ T cell response against peptide after DNA immunization: Group A monkeys, ELISPOT after 1st-4th DNA immunization; for Epitope-specific responses, Group C monkeys, 2 weeks post-SIV infection: Mamu-A*01 positive macaques immunized only after infection
Description: Each monkey received a total of 4 immunizations consisting of 32.0 μg DNA (3.2 μg of each DNA vector) per immunization spaced 4-8 weeks apart. The epitope specificity of the CD8+ T cell responses was determined by ELISPOT following the 1st, 2nd, 3rd or 4th DNA immunization.
ELISPOTs were performed essentially as described (Roy et al. 2000). Briefly, antibody pairs against rhesus monkey IFNγ (Cytech-BV, Amsterdam, The Netherlands) were used to measure the number of r cells that secrete IFNγ. PBMC were cultured at 2 different dilutions in 96 well nitrocellulose filter plates (Millipore) previously coated with anti-cytokine mAbs. ^2 μg/ml of the appropriate MamuA*01 CTL peptide or pepset (Chiron) was then added.
CD8+ T cell responses were measured by ELISPOT. In A*01 positive monkeys, the average cumulative ELISPOT was determined at each timepoint by measuring responses following stimulation with 10 representative epitopes included in the vaccine. In A*01 negative monkeys, cumulative ELISPOT values were determined using gag and tat peptide pools.

[2] = Table 1 characteristics, from references; cited from earlier work
[3] = test system: SIV gag recombinant protein; assay: Proliferation analysis of PBMC; assay type: in vivo, rhesus macaques; details: proliferative responses to SIV gag
Description: At each time point PBMC were isolated from whole blood by density gradient centrifugation over Ficoll-Hypaque and resuspended in complete RPMI media containing 10% human serum (R10 medium). In 96-well flat bottom plates, 2×10^5 PBMC/well were incubated for 6 days with 0.2 μg/well protein in R10 media. PBMC were stimulated 10 μg/ml of SIV gag recombinant protein (Intracel). Sixteen hours before the end of the assay, each well was pulsed with 1 μCi ^3H-thymidine. Cells were harvested and the isotope incorporation measured by scintillation spectroscopy. All assays were performed in triplicates.
Proliferative responses to SIV gag were measured during combined PMPA+DNA vaccine therapy (weeks 0-28) and after discontinuation of therapy (weeks 30-46 to date).

SIV/DeltaB670 = assay: Plasma viral loads (real time PCR) after SIV challenge, PMPA + DNA vaccine immunotherapy
MHC = details: Table 1 characteristics, from references; cited from earlier work

Molecule | Epitope-specific responses, Group A monkeys, 2 weeks post-SIV infection [1] | Epitope-specific responses, Group A monkeys, Post-immunization, Pre-infection [1] | CD8+ T cell response against peptide after DNA immunization [1] | immunogenicity [2] | Epitope-specific responses, Group C monkeys, 2 weeks post-SIV infection [1] | further results
TVPWPNASL [Env622-630TL9] | +/+ (A + response = a minimum of 25 spot forming cells/1 × 10^6 PBMC was detected in at least 1 of the 8 monkeys per group) | +/+ (A + response = a minimum of 25 spot forming cells/1 × 10^6 PBMC was detected in at least 1 of the 8 monkeys per group) | Significant responses |  |  | 
RIQRGPGRAFVTIGK |  |  |  | epitopes, highly |  | 
GSPAIFQYTM [Pol359-365GM10] | +/+ (A + response = a minimum of 25 spot forming cells/1 × 10^6 PBMC was detected in at least 1 of the 8 monkeys per group) | +/+ (A + response = a minimum of 25 spot forming cells/1 × 10^6 PBMC was detected in at least 1 of the 8 monkeys per group) | Significant responses |  |  | 
LAPVPIPFA [Gag372-380LA9] | +/+ (A + response = a minimum of 25 spot forming cells/1 × 10^6 PBMC was detected in at least 1 of the 8 monkeys per group) | +/+ (A + response = a minimum of 25 spot forming cells/1 × 10^6 PBMC was detected in at least 1 of the 8 monkeys per group) | Significant responses |  |  | 
QVPSLQYLA [Vifl44-152QA9] | +/+ (A + response = a minimum of 25 spot forming cells/1 × 10^6 PBMC was detected in at least 1 of the 8 monkeys per group) | +/+ (A + response = a minimum of 25 spot forming cells/1 × 10^6 PBMC was detected in at least 1 of the 8 monkeys per group) | Significant responses |  | NA/+ (A + response = a minimum of 25 spot forming cells/1 × 10^6 PBMC was detected in at least 1 of the 8 monkeys per group) | 
FRKQNPDIVIYQYMDDLYVG |  |  |  | epitope, strong |  | 
CAPPGYALL [Env235-243CL9] | +/+ (A + response = a minimum of 25 spot forming cells/1 × 10^6 PBMC was detected in at least 1 of the 8 monkeys per group) | +/+ (A + response = a minimum of 25 spot forming cells/1 × 10^6 PBMC was detected in at least 1 of the 8 monkeys per group) | Significant responses |  | NA/+ (A + response = a minimum of 25 spot forming cells/1 × 10^6 PBMC was detected in at least 1 of the 8 monkeys per group) | 
C[C@H](Cn1cnc2c(N)ncnc21)OCP(=O)(O)O [Group E] |  |  |  |  |  | Average Stimulation Index +/− SE post-therapy (wks 30-46) ([3]; after discontinuing therapy, weeks 30-46): 1.4 +/− 0.2; Average Stimulation Index +/− SE during therapy (wks 0-28) ([3]; combined PMPA + DNA vaccine therapy, weeks 0-28): 1.8 +/− 0.5; Geometric mean virus loads during therapy with DNA vaccines + PMPA (weeks 5-28) (SIV/DeltaB670; weeks 5-28, during therapy): 7,192 no. of copies of viral RNA/ml plasma; Immunotherapeutic efficacy: number of monkeys maintaining virus loads at < 5000 viral RNA copies/ml plasma, during therapy (weeks 5-28) (SIV/DeltaB670; weeks 5-28, during therapy with DNA vaccines + PMPA): 4/8; Geometric mean virus loads after discontinuation of drug and vaccine therapy (weeks 30-46) (SIV/DeltaB670; weeks 30-46, after discontinuation): 38,428 no. of copies of viral RNA/ml plasma; Immunotherapeutic efficacy: number of monkeys maintaining virus loads at < 5000 viral RNA copies/ml plasma, after discontinuation (weeks 30-46) (SIV/DeltaB670; weeks 30-46, after discontinuation of drug and vaccine therapy): 1/8
STPESANL [Tat28-35SL8] | +/+ (A + response = a minimum of 25 spot forming cells/1 × 10^6 PBMC was detected in at least 1 of the 8 monkeys per group) | +/+ (A + response = a minimum of 25 spot forming cells/1 × 10^6 PBMC was detected in at least 1 of the 8 monkeys per group) | Significant responses |  | NA/+ (A + response = a minimum of 25 spot forming cells/1 × 10^6 PBMC was detected in at least 1 of the 8 monkeys per group) | 
ILKEPVHGVY |  |  |  | MHC, strong |  | binding affinity to MHC (MHC): CTL epitope, high
CTPYDINQM [Gag181-189CM9] | +/+ (A + response = a minimum of 25 spot forming cells/1 × 10^6 PBMC was detected in at least 1 of the 8 monkeys per group) | +/+ (A + response = a minimum of 25 spot forming cells/1 × 10^6 PBMC was detected in at least 1 of the 8 monkeys per group) | Significant responses |  | NA/+ (A + response = a minimum of 25 spot forming cells/1 × 10^6 PBMC was detected in at least 1 of the 8 monkeys per group) | 
LLWKGEGAV |  |  |  | MHC, strong |  | binding affinity to MHC (MHC): CTL epitope, high
